Measured values as given in patent US20200189989A1, “APPLICATION OF SYRINGIC ACID IN PROMOTING NITRIFICATION INHIBITION ACTIVITY OF DECANEDIOL” (Institute of Soil Science, Chinese Academy of Sciences, priority 2018, published 2020).

Key:
Assay type in all cases: cell-based
Nitrosomonas = experiment: Nitrosification inhibition activity of syringic acid alone and as promoter of 1,9-decanediol (summary statement)
Source text: The root exudates of 19 rice varieties are collected, concentrated, and determined for their nitrosification inhibition activities by using Nitrosomonas europaea. The varieties with significant effects are further screened out from them, to select a variety of which the root exudate has a significant inhibitory effect and a variety of which the root exudate has an effect opposite to the former, and then they are subjected to GC/MS identification for components thereof. By component comparison of the two varieties, syringic acid (4-Hydroxy 3,5-dimethoxybenzoic acid, with the molecular weight of 198.18) is identified in the root exudate of the rice variety Wuyunjing 7 having a significant inhibitory effect.

[1] = test system: Nitrosomonas europaea (NBRC 14298); experiment: Nitrification activity inhibition experiment, Nitrosomonas europaea (NO2- production, improved Griess method); settings: 2 hours, 25° C., dark
Experimental: Standard: a syringic acid standard was purchased from Sigma-Aldrich (St. Louis, Mo., USA), and the solid powder thereof was weighed and dissolved in DMSO. A 1,9-decanediol standard was purchased from WuXi AppTec, and the solid powder thereof was dissolved in DMSO while frozen over the dry ice (the 1,9-decanediol standard was a viscous liquid substance under normal temperature). Microbial strains: Nitrosomonas europaea (NBRC 14298) was purchased from Biological Resource Center, NITE, Japan. Microbial culture medium: a HEPES medium, which contained 2.5 g of (NH4)2SO4, 0.5 g of KH2PO4, 11.92 g of HEPES, 0.5 g of NaHCO3, 100 mg of MgSO4.7H2O, 5 mg of CaCl2.2H2O, and 75 mg of Fe-EDTA per 1 L liquid medium, at pH 7.8-8.0. Culture of microorganisms: Nitrosomonas europaea was inoculated in the HEPES medium and cultured at 30° C. and 200 rpm under a dark condition (aerobic), and the Nitrosomonas europaea enters a stable period 7-9 days after transfer each time. Nitrification activity inhibition experiment: The bacterial solution cultured for 7 days was collected, centrifuged at 5000 g for 20 min, and resuspended in a fresh and sterile HEPES medium until the OD600 reached about 1.0, with a concentration multiple of 40-50 times. Taken was a 1.5 mL sterile centrifuge tube, and it was sequentially added with 195 μL of sterile water, 5 μL of different concentrations of solutions of syringic acid and 1,9-decanediol in DMSO, 100 μL of the fresh and sterile HEPES medium, and 200 μL of a resuspended bacterial solution, and then cultured in a water bath at 25° C. under a dark condition for 2 hours. Then the mixed system was added with 20 μL of 0.1M Allylthiourea to terminate the nitrosification. […] of the reacted mixture was added into a 10 mL colorimetric tube, diluted to about 5 mL with deionized water, added with 1 mL of a sulfanilic acid solution, shaken well and then subjected to standing for 2-8 min, then added with 1 mL of a hydrochloric acid N-(1-naphthyl)-ethylenediamine solution, shaken well, diluted to 10 mL with water to obtain a constant volume. Deionized water was used as a reference, and the absorbances were determined at a wavelength of 540 nm. The reticle of NO2^− was made in the same manner to quantify the NO2^− generated in the sample system, and the sample inhibition rate was calculated by the following formula. This determination method was an improved Griess method, which could be referred to the national standard “determination of nitrite in the wet precipitation -N-(1-naphthyl)-1,2-diaminoethane spectrophotometry”. Nitrosification inhibition rate (%)=(1-the produced amount of NO2^− of the sample/the produced amount of NO2^− of a blank)×100%

[2] = test system: Nitrosomonas stercoris (NBRC 110753); experiment: Nitrification activity inhibition experiment, Nitrosomonas stercoris (NO2- production, improved Griess method); settings: 2 hours, 25° C., dark
Experimental: Nitrification activity inhibition experiment: The bacterial solution cultured for 7 days was collected, centrifuged at 5000 g for 20 min, and resuspended in a fresh and sterile HEPES medium until the OD600 reached about 1.0, with a concentration multiple of 40-50 times. Taken was a 1.5 mL sterile centrifuge tube, and it was sequentially added with 195 μL of sterile water, 5 μL of different concentrations of solutions of syringic acid and 1,9-decanediol in DMSO, 100 μL of the fresh and sterile HEPES medium, and 200 μL of a resuspended bacterial solution, and then cultured in a water bath at 25° C. under a dark condition for 2 hours. Then the mixed system was added with 20 μL of 0.1M Allylthiourea to terminate the nitrosification. […] of the reacted mixture was added into a 10 mL colorimetric tube, diluted to about 5 mL with deionized water, added with 1 mL of a sulfanilic acid solution, shaken well and then subjected to standing for 2-8 min, then added with 1 mL of a hydrochloric acid N-(1-naphthyl)-ethylenediamine solution, shaken well, diluted to 10 mL with water to obtain a constant volume. Deionized water was used as a reference, and the absorbances were determined at a wavelength of 540 nm. The reticle of NO2^− was made in the same manner to quantify the NO2^− generated in the sample system, and the sample inhibition rate was calculated by the following formula. This determination method was an improved Griess method, which could be referred to the national standard “determination of nitrite in the wet precipitation -N-(1-naphthyl)-1,2-diaminoethane spectrophotometry”. Nitrosification inhibition rate (%)=(1-the produced amount of NO2^− of the sample/the produced amount of NO2^− of a blank)×100% The selection and formulation of the standard were the same as those of Embodiment 1. Microbial Strains: Nitrosomonas stercoris (NBRC 110753) was purchased from Biological Resource Center, NITE, Japan. The microbial culture medium and microbial culture were the same as those of Embodiment 1. Nitrification activity inhibition experiment: The bacterial solution of Nitrosomonas stercoris cultured for 7 days was collected, centrifuged at 5000 g for 20 min, and resuspended in a fresh and sterile HEPES medium until the OD600 reached about 1.0, with a concentration multiple of 40-50 times. Taken was a 1.5 mL sterile centrifuge tube, and it was sequentially added with 195 μL of sterile water, 5 μL of different concentrations of solutions of syringic acid and 1,9-decanediol in DMSO, 100 μL of the fresh and sterile HEPES medium, and 200 μL of a resuspended bacterial solution, and then cultured in a water bath at 25° C. under a dark condition for 2 hours. Then the mixed system was added with 20 μL of 0.1M Allylthiourea to terminate the nitrosification. […]

Structure (SMILES)	inhibitory activity to the Nitrosomonas (Nitrosomonas; syringic acid alone)	effect concentration for promoting the inhibition of 1,9-decanediol to the nitrosification activity of the Nitrosomonas (Nitrosomonas; syringic acid combined with 1,9-decanediol) [µg/mL]	inhibition rate for the nitrosification process of Nitrosomonas europaea ([1]; 1,9-decanediol added alone) [%]	nitrification inhibition rate ([1]; 1,9-decanediol plus syringic acid at 10 μ·mL^−1) [%]	nitrification inhibition rate ([1]; 1,9-decanediol plus syringic acid at 100 μ·mL^−1) [%]	nitrification inhibition rate ([1]; 1,9-decanediol plus syringic acid at 500 μ·mL^−1) [%]	inhibition rate (nitrification inhibition effect on Nitrosomonas stercoris) ([2]; 1,9-decanediol plus 10 μg·mL^−1 of syringic acid) [%]	inhibition rate (nitrification inhibition effect on Nitrosomonas stercoris) ([2]; 1,9-decanediol plus 100 μg·mL^−1 of syringic acid) [%]	inhibition rate (nitrification inhibition effect on Nitrosomonas stercoris) ([2]; 1,9-decanediol plus 500 μg·mL^−1 of syringic acid) [%]	inhibition rate (nitrification inhibition effect on Nitrosomonas stercoris) ([2]; 1,9-decanediol without syringic acid) [%]
COc1cc(C(=O)O)cc(OC)c1O [syringic acid, 4-Hydroxy 3,5-dimethoxybenzoic acid]	no significant inhibitory activity	10 to 500	–	–	–	–	–	–	–	–
CC(O)CCCCCCCCO (stereo not shown) [1,9-decanediol]	–	–	41.2	51.7	61.1	69.2	60.5	70.2	89.9	51.5
